In brackets after ≈: the same amount, converted by molar mass.
Tests used:
MCF-7 = assay: SRB cytotoxicity assay on MCF7; type: cell-based, human; conditions: for IC50: Homo sapiens, MCF7, ± SD, read-out: IC50 values, cytotoxic effect on MCF7
Procedure: (§1) The assessment was performed in the National Cancer Institute in Egypt (NCI). The half maximal inhibitory concentration (IC50) values were then calculated from three independent experiments, three replicates each for each sample.

T47D = assay: SRB cytotoxicity assay on T47D; type: cell-based, human; conditions: ± SD; for IC50: Homo sapiens, T47D, read-out: IC50 values, cytotoxic effect on T47D
Procedure: as §1

[1] = SRB cytotoxicity assay on normal HFB4 cells; type: cell-based, human; conditions: human, normal HFB4 cells, ± SD, read-out: IC50 values, cytotoxic effect on HFB4
Procedure: (§2) The cytotoxic activity of the ethanolic extracts of the peels along with the isolated major phenolics was tested against two human estrogen-dependent breast cancer cell lines, namely, MCF-7 and T47D, as well as the normal human HFB4 cells for assessment of toxicity, using the sulforhodamine B (SRB) assay. The assessment was performed in the National Cancer Institute in Egypt (NCI). The half maximal inhibitory concentration (IC50) values were then calculated from three independent experiments, three replicates each for each sample.

[2] = tested on: Immature female Swiss albino mice; assay: In vivo anti-estrogenic activity assay (with estradiol); conditions: for reversal of estradiol-induced vaginal cornification / reduction in uterine weight compared to estradiol alone: 30 mg/kg i.p. plus estradiol; for reduction in uterine weight compared to estradiol alone: 7 days; for day on which vaginal opening reached 100% / day on which vaginal opening started (delay up to day): flavonoid 30 mg/kg i.p. plus estradiol 12.5 µg/kg s.c., estradiol alone as positive control
Procedure: (§3) Immature female Swiss albino mice (8-13 g) were obtained from the animal house of the Faculty of Pharmacy, The British University in Egypt. All experimental procedures were conducted in compliance with the Animal Research: Reporting of In Vivo Experiments (ARRIVE) guidelines and the National Institutes of Health guide for the care and use of Laboratory animals (NIH Publication No. 85-23, revised 2011) and were approved by the Ethics Committee, Faculty of Pharmacy, The British University in Egypt (Ex-2101). All experiments were performed during the light phase of a light/dark cycle that was started 1 week after acclimatization. The room temperature was adjusted at 25 ± 2 °C. Mice had free access to food and water during the experiments. The experimental design was adopted from[27],[28]. The mice were randomly divided into 9 groups (7-8 mice each) as follows: Group 1: Negative control (NC) receiving only olive oil, s.c.; Group 2: […] For estrogenic activity, Group 3: Genistein phytoestrogen positive control (Gein.) treated group; Group 4: Quercetin (Qrt.) treated group; Group 5: Naringenin (Narn.) treated group and Group 6: Naringin (Nar.) treated group. For anti-estrogenic activity, estradiol was given after treatments by 6 h for Groups 7, 8 and 9 representing […]., respectively. All treatments including genistein were given at a dose of 30 mg/kg dissolved in Tween 80 (1%), i.p., for 7 days. The animals' weights were recorded daily to ensure the safety of the doses used. On the 7th day, the animals were sacrificed, the morphological appearance of the livers was observed, and the uteri were also isolated and weighed. The in vivo estrogenic and anti-estrogenic activities were assessed. The vaginal opening on each day of the study was checked as a sign of puberty. On the 7th day, vaginal swab was taken from the opened vagina to examine the cornification level under light microscope (4× lens). The uteri were excised and weighed after sacrification of mice under anesthesia.

uterine weight = tested on: uterine weight; set-up: method as in PMID 25337190; conditions: cited from earlier work
[3] = tested on: Immature female Swiss albino mice; assay: In vivo estrogenic activity assay; conditions: 30 mg/kg i.p.
Procedure: as §3

[4] = tested on: Ehrlich ascites carcinoma (EAC) solid tumor; assay: Ehrlich ascites carcinoma (EAC) solid tumor model, tumor volume; type: in vivo, mice; conditions: 19th day after treatment; quercetin 100, naringenin 50, naringin 100 mg/kg i.p. daily
From the text: In order to evaluate the anticancer effect of the active isolates (quercetin, naringenin and naringin) and their potential to decrease aromatase levels in tumours, an animal model of Ehrlich ascites carcinoma (EAC) solid tumour was used followed by aromatase ELISA assay as will be described later. Swiss albino female mice (20-25 g) were used for the experiment. EAC cells were collected from the ascitic fluid of a female Swiss albino mouse bearing a 10-day old ascitic tumor where approximately 2.5 × 10^6 cells were transplanted, i.m. in the left thigh of female mice. When tumors became palpable (approximately 200-300 mm^3 in volume), treatment was initiated. Forty EAC-tumour bearing mice were randomly allocated into the following groups (n = 10): (1) PC group: positive control group that received only drug vehicle, (2) Qrt.-treated group: Mice were treated with a daily dose of 100 mg/kg of quercetin[30] i.p., (3) Narn.-treated group: Mice were treated with a daily dose of 50 mg/kg of naringenin, i.p.[31], and (4) Nar.-treated group: […] Treatment doses were given daily excluding Fridays and Saturdays. Tween 80 (1%) was used as a vehicle. Mice were sacrificed under brief anaesthesia at the 20th day after starting treatment and tumors were collected for further analysis. Tumor volume was calculated using a digital caliper at days 0, 4, 7, 10, 13, 16, and 19 after treatment, according to the following equation[33]: […]

Aromatase = Aromatase protein levels in EAC solid tumors (ELISA); type: in vivo, mice; conditions: for aromatase levels in tumors, lower than positive control group: ELISA on tumor homogenates, day 20, quercetin 100, naringenin 50, naringin 100 mg/kg i.p.
From the text: EAC cells were collected from the ascitic fluid of a female Swiss albino mouse bearing a 10-day old ascitic tumor where approximately 2.5 × 10^6 cells were transplanted, i.m. in the left thigh of female mice. When tumors became palpable (approximately 200–300 mm^3 in volume), treatment was initiated. Forty EAC-tumour bearing mice were randomly allocated into the following groups (n = 10): (1) PC group: positive control group that received only drug vehicle, (2) Qrt.-treated group: Mice were treated with a daily dose of 100 mg/kg of quercetin[30] i.p., (3) Narn.-treated group: Mice were treated with a daily dose of 50 mg/kg of naringenin, i.p.[31], and (4) Nar.-treated group: Mice were treated with a daily dose of 100 mg/kg of naringin, i.p.[32]. Treatment doses were given daily excluding Fridays and Saturdays. Tween 80 (1%) was used as a vehicle. Mice were sacrificed under brief anaesthesia at the 20th day after starting treatment and tumors were collected for further analysis.
Excised tumors were homogenized as 10% (w/v) in phosphate buffered saline. Aromatase concentration was then determined in tissue homogenates using Mouse Aromatase ELISA kit (MyBiosource, USA), according to the manufacturer’s instructions. Optical density equivalent to aromatase levels in samples was determined at 450 nm using a microplate reader.

[5] = set-up: method as in PMID 21964193; conditions: naringin 40 and naringenin 80 mg/kg, respectively; cited from earlier work
[6] = tested on: estrogen-induced uterine weight; conditions: 30 mg/rat co-treated with estradiol (0.5 µg/rat); cited from earlier work
HFB4 cells = assay: SRB cytotoxicity assay on normal HFB4 cells; type: cell-based, human; conditions: ± SD
Procedure: as §2

Aromatase enzyme (CYP19) = target: T1, Aromatase enzyme (CYP19) (Homo sapiens, UniProt P11511); assay: In vitro aromatase inhibition assay (dibenzylfluorescein); type: biochemical; conditions: ± SD
T1 construct: purchased BD Biosciences, San Jose, CA
T1 sequence (P11511 1-503): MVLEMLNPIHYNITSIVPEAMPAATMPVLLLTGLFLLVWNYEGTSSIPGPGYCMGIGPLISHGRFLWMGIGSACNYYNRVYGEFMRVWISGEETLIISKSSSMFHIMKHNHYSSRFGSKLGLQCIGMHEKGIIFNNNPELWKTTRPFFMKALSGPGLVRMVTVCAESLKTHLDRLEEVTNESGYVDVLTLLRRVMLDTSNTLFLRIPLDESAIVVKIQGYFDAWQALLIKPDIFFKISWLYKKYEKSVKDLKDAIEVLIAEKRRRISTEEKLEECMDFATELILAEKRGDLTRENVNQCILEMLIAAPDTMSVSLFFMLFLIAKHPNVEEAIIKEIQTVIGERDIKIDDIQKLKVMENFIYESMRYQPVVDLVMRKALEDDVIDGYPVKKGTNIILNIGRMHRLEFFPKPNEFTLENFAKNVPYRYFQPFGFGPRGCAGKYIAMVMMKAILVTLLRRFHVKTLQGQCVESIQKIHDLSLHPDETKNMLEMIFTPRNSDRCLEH
Procedure: Aromatase inhibition was quantified by measuring the fluorescent intensity of fluorescein, the hydrolysis product of dibenzylfluorescein, by aromatase, as previously described[29]. In brief, the test substance (10 µL) was pre-incubated with the NADPH regenerating system (90 µL of 2.6 mM NADP^+, 7.6 mM glucose 6-phosphate, 0.8 U/mL glucose 6-phosphate dehydrogenase, 13.9 mM MgCl2, and 1 mg/mL albumin in 50 mM potassium phosphate, pH 7.4) for 10 min at 37 °C before 100 µL of the enzyme and substrate mixture [4 pmol/well enzyme (CYP19, BD Biosciences, San Jose, CA), 0.4 µM dibenzylfluorescein, and 4 mg/mL albumin in 50 mM potassium phosphate, pH 7.4] were added. Then, the reaction mixture was incubated for 30 min at 37 °C to allow aromatase to generate the product and quenched with 75 µL of 2 N NaOH. After the reaction was terminated, shaking was done for 5 min followed by incubation for 2 h at 37 °C to enhance the noise/background ratio, then fluorescence was measured at 485 nm (excitation) and 530 nm (emission). Three independent experiments were performed in duplicates, and the average values were used to construct the dose–response curves.

Compound | IC50 (MCF-7) [µg/mL] | IC50 (T47D) [µg/mL] | IC50 [1] [µg/mL] | reversal of estradiol-induced vaginal cornification [2] | reduction in uterine weight compared to estradiol alone [2] [%] | day on which vaginal opening reached 100% [2] [days] | day on which vaginal opening started (delay up to day) [2] [days] | average uterine weight ([3]; 7 days, no estradiol) [mg] | decrease in tumor volume compared to positive control [4] [%] | also measured
COc1ccc(-c2cc(=O)c3c(OC)c(OC)c(OC)c(OC)c3o2)cc1OC [C1, 5,6,7,8,3′,4′-hexamethoxy flavone] | > 50 | > 50 | > 50 | – | – | – | – | – | – | –
O=c1c(O)c(-c2ccc(O)c(O)c2)oc2cc(O)cc(O)c12 [C2, 5,7,3′,4′-tetrahydroxy flavonol] | 2.11 ± 0.71 (≈ 6.98 µM) | 1.81 ± 0.28 (≈ 5.99 µM) | > 50 | not fully reversed | 48 | 4 | 2 | 13.0 ± 3.0 | 61.71 | effect on the uterine weight upon treatment with steroid (uterine weight; 10 mg/kg): anti-estrogenic effect; estrogenic effect at higher dose (uterine weight; 100 mg/kg): potent estrogenic effect; day on which vaginal opening started ([3]; 7 days, no estradiol): 6 days; reduction in aromatase levels as compared to naringenin (Aromatase; EAC tumors, ELISA): 26.4%; reduction in aromatase levels as compared to naringin (Aromatase; EAC tumors, ELISA): 32%; aromatase levels in tumors, lower than positive control group (Aromatase): 72.35%
COc1ccc(-c2cc(=O)c3c(O)cc(O[C@@H]4O[C@H](CO[C@@H]5O[C@@H](C)[C@H](O)[C@@H](O)[C@H]5O)[C@@H](O)[C@H](O)[C@H]4O)cc3o2)cc1O [C3, 5,3′-dihydroxy-4′-methoxy flavone-7O-α-L-rhamnopyranosyl (1 → 6)β-D-glucopyranoside] | > 50 | > 50 | > 50 | – | – | – | – | – | – | –
O=C1CC(c2ccc(O)cc2)Oc2cc(O)cc(O)c21 (centres unmarked) [C4, 5,7,4′-trihydroxy flavanone] | 1.12 ± 0.09 (≈ 4.11 µM) | 1.93 ± 0.07 (≈ 7.09 µM) | > 50 | not fully reversed | 58 | 7 | 5 | 16.0 ± 3.7 | 73.26 | estrogenic and anti-estrogenic activities [5]: double directional estrogenic and anti-estrogenic activities; effect on estrogen-induced uterine weight [6]: significant decrease in estrogen-induced uterine weight
COc1ccc([C@@H]2CC(=O)c3c(O)cc(O[C@@H]4O[C@H](CO[C@@H]5O[C@@H](C)[C@H](O)[C@@H](O)[C@H]5O)[C@@H](O)[C@H](O)[C@H]4O)cc3O2)cc1O [C5, 5,3′-dihydroxy-4′-methoxy flavanone-7O-α-L-rhamnopyranosyl (1 → 6)β-D-glucopyranoside] | – | – | – | – | – | – | – | – | – | IC50 values, cytotoxic effect on MCF7 (MCF-7; ± SD): – ((−) no activity in a concentration up to 50 µg/mL); IC50 values, cytotoxic effect on T47D (T47D): – ((−) no activity in a concentration up to 50 µg/mL); IC50 values, cytotoxic effect on HFB4 (HFB4 cells): – ((−) no activity in a concentration up to 50 µg/mL)
COc1ccc(C2CC(=O)c3c(O)cc(O)cc3O2)cc1O (centres unmarked) [C6, 5,7,3′-trihydroxy-4′-methoxy flavanone] | 4.96 ± 0.89 (≈ 16.4 µM) | 3.53 ± 0.19 (≈ 11.7 µM) | > 50 | – | – | – | – | – | – | –
C[C@@H]1O[C@@H](OC[C@H]2O[C@@H](Oc3c(-c4ccc(O)c(O)c4)oc4cc(O)cc(O)c4c3=O)[C@H](O)[C@@H](O)[C@@H]2O)[C@H](O)[C@H](O)[C@H]1O [C7, 5,7,3′,4′-tetrahydroxy flavon-3O-α-L-rhamnopyranosyl (1 → 6)β-D-glucopyranoside] | > 50 | > 50 | > 50 | – | – | – | – | – | – | –
C[C@@H]1O[C@@H](O[C@H]2[C@H](Oc3cc(O)c4c(c3)O[C@H](c3ccc(O)cc3)CC4=O)O[C@H](CO)[C@@H](O)[C@@H]2O)[C@H](O)[C@H](O)[C@H]1O [C8] | 2 ± 0.98 (≈ 3.45 µM) | 3.63 ± 0.1 (≈ 6.25 µM) | > 50 | not fully reversed | 57.7 | 7 | 3 | 17.0 ± 2.6 | 71.47 | estrogenic and anti-estrogenic activities [5]: double directional estrogenic and anti-estrogenic activities; IC50 (Aromatase enzyme (CYP19)): 3.26 µM; aromatase levels in tumors, lower than positive control group (Aromatase): 59.36%
C[C@]12CC[C@@H]3c4ccc(OC(=O)c5ccccc5)cc4CC[C@H]3[C@@H]1CC[C@@H]2O [estradiol, Estradiol benzoate, reference compound] | – | – | – | – | – | 5 | 2 | – | – | body weight ([2]; 7 days treatment): 15.6 ± 1.8 g; uterine weight ([2]; estradiol alone 12.5 µg/kg s.c.): 215.0 ± 64.4 mg
O=c1c(-c2ccc(O)cc2)coc2cc(O)cc(O)c12 [genistein, reference compound] | – | – | – | – | – | – | – | 20.0 ± 7.5 | – | vaginal cornification ([3]; day 7 swab): mild vaginal cornification

Source: paper PMC8007834, “Anti-estrogenic and anti-aromatase activities of citrus peels major compounds in breast cancer” (Scientific Reports, 2021)
